Values quoted from earlier work in patent US5441941A, “1,2-dihydroellipticines with activity against CNS specific cancer” (The United States of America as represented by the …, priority 1993, dated 1995).
Like-named read-outs stand apart in the source and are kept apart here.

Columns and labels:
[1] = test system: mouse lymphoid leukemia L-1210; settings: cited from earlier work
[2] = test system: mammary cancer; settings: in vivo; cited from earlier work
[3] = test system: P388; settings: cited from earlier work
[4] = test system: B16 melanoma; settings: cited from earlier work
[5] = test system: colon carcinoma; settings: cited from earlier work
[6] = test system: M5076 reticulosarcoma; settings: cited from earlier work
[7] = test system: Sarcoma 180 (solid); settings: in vivo; cited from earlier work
[8] = test system: SF126; settings: human glioma line; cited from earlier work
[9] = test system: SF375; settings: human glioma line; cited from earlier work
[10] = test system: SF407; settings: human glioma line; cited from earlier work

Cc1c2ccncc2c(C)c2c1[nH]c1ccc(O)cc12 [9-hydroxyellipticine, 9-hydroxy-5,11-dimethyl-(6H) -pyrido [4,3-b] carbazole]
antitumor activity ([1]; mouse L-1210 leukemia): considerably high antitumor properties

Cc1c2cc[n+](C)cc2c(C)c2c1[nH]c1ccc(O)cc12 [Celiptium, 2-methyl-9-hydroxyellipticinium acetate]
effect against mammary cancer [2]: effective against mammary cancer

CCN(CC)CC[n+]1ccc2c(C)c3[nH]c4ccc(O)cc4c3c(C)c2c1 [datelliptium, 2-[(2-diethylamino)ethyl]-9-hydroxyellipticinium]
antitumor activity ([1]; mouse, in vivo): in vivo activity
in vivo activity [3]: in vivo activity
in vivo activity [4]: in vivo activity
in vivo activity [5]: in vivo activity
in vivo activity [6]: in vivo activity

Cc1c2ccncc2c(C)c2c1[nH]c1ccccc12 [ellipticine, 5, 11-dimethyl-6H-pyrido [4,3-b] carbazole]
antitumor activity ([1]; mouse L-1210 leukemia): effective against the tumor of animals
effect against tumor of animals [7]: effective against the tumor of animals

Cc1c2cc[n+](C)cc2c(C)c2c1[nH]c1ccc(O)cc12 [elliptinium]
in vitro activity [8]: in vitro activity
in vitro activity [9]: in vitro activity
in vitro activity [10]: in vitro activity
